The record followed here is US6436421B1, “Pesticide compositions” (priority 1997, dated 2002).

Molecules are shown by their SMILES. Where two headings read alike, the source gives them in different places.

One series relates to Beet Armyworm larvae. Briefly: Beet Armyworm control on potted rice plants using tebufenozide. The format is in vivo. The text has this:
Rice plants grown in pots were sprayed with one of two different versions of a 300 parts per million (based on active ingredient level) suspension of tebufenozide in water. In one version, the tebufenozide was supplied as Mimic® 10 W insecticide, a wettable powder, from Rohm and Haas Company. In the second version, approximately 30% by weight of the carrier in the Mimic® 10 W insecticide was replaced with Powder V from the above examples and approximately 10% by weight of the clay carrier was replaced by Aerosol®OTB surfactant. One portion of each of the sprayed plant samples was subjected to approximately 25 millimeters of water applied by a spray bar to simulate rain. The plants were cut and fed to Beet Armyworm larvae. Percent mortality was then evaluated.

The format of series [1] is physicochemical. The procedure: One method to evaluate the efficacy of a pesticide adjuvant is to measure its affect on the ability of the pesticide composition to resist wash-off from a surface. One skilled in the art will recognize that a pesticide which remains on the surface of a plant will be expected to have increased efficacy.
A suspension of the pesticide formulation was prepared by adding a premix of water and surfactant, with and without the polymer additives, followed by vigorous shaking of the mixtures by hand. Pieces of Parafilm™M laboratory film, a very soft, flexible, and hydrophobic film, were taped to plastic petrie dishes. The suspensions were sprayed with an automated sprayer as the petrie dishes with attached film were moved at a standard rate below the sprayer. The spray residues were allowed to dry, and a second application of spray was applied. One set of films was exposed, at an inclination of 45 degrees, to approximately 25 mm of water applied by a spray bar (equipped with TX-4 cone-type spray nozzles) that moved back and forth over the samples for a period of about 1 hour. The exposed films were allowed to dry. Another set of films was not exposed to water.
Infra-red spectra of the films were obtained by an Attenuated Total Reflection (ATR) technique. The films were pressed against a Zinc Selenide crystal that had been cleaned previously with methanol. Spectra were recorded with a Spectratech Allied Systems Fourier Transform Infra-Red Spectrometer, and stored in a computer. Peaks associated with pesticide residue were identified by inspection and peak areas were calculated by computer (Pesticide Peak Area, “PA”). A corresponding area for a Parafilm™ peak as similar as possible in peak location and size (in the same spectrum) was calculated (Film Peak Area, “FA”). […] A measure of the pesticide on the surface “P” was derived from the following calculation:
A relative measure of the amount of pesticide remaining after the above exposure to water was then derived from the following calculation: [formula]
Although the intensity of spectral peaks recorded with the ATR technique are very dependent on details of contact with the film, by obtaining a ratio of the pesticide peak to the film peak in the same spectral recording, different spectra can be compared with details of contact being compensated for, since they will have similar effects on the intensity of the pesticide absorption and the film absorption. The intensity of the pesticide peak relative to the film peak will depend on the degree of coverage of the film by the pesticide. To maximize coverage, the spraying was conducted twice. Furthermore, a wetting agent (surfactant) was included in the premix to promote wetting of the film by the spray droplets. Since exposure to water can result in re-distribution of the pesticide as well as wash-off of the pesticide, the measure of the amount remaining is only relative.
In all cases, a measured amount of pesticide was mixed with 270 grams of deionized water and 30 grams of 0.5% Silwet L-77 surfactant. This premix was divided into 50 gram portions. One portion was sprayed without adding polymer. For mixes containing polymer, 66.6 milligrams powder polymer or 1.32 g of a 5% solids dilution of the emulsion polymer were added to the 50 grams of premix.
TX-2 nozzle 12 inches above laboratory film.
58 psi (delivers 150 cc/minute).
Laboratory film moves at 1 mile/hour.
Fan nozzle 14 inches above laboratory film.
29 psi (Spray 15 cc with two passes over laboratory film at a rate to give 25 gallons/acre).

In a further series the test system is beet armyworm. Briefly: Beet Armyworm control under field conditions on Chinese kale. The conditions noted are these: 300 g of tebufenozide per hectare, compared to untreated control plot. The format is in vivo. The procedure: Each of two different plots of Chinese kale grown under typical field conditions was treated with one of the two tebufenozide formulations described above at an application rate of 300 g of tebufenozide per hectare in 750 liters of water per hectare. The percent beet armyworm mortality in each plot was compared to an untreated control plot.

For the compound `CCc1ccc(C(=O)NN(C(=O)c2cc(C)cc(C)c2)C(C)(C)C)cc1` [tebufenozide], the “Beet Armyworm Mortality (%)” value is 28% in the series on Beet Armyworm larvae (With Rain (approximately 25 millimeters of water by spray bar), 300 parts per million suspension) and 90% in the series with Beet Armyworm larvae (Without Rain, rice plants sprayed with 300 parts per million suspension). Moreover, the “% AI Retained After One Inch Spray-Bar Rain, M (mean)” value worked out at 40% in series [1] (No Polymer); 59% in series [1] (with Emulsion IV); 71% in series [1] (with Powder I); 67% in series [1] (with Powder II); 40% in series [1] (with Powder III). The “Beet Armyworm Control (%)” value with beet armyworm is recorded as 35%.
